From ChEMBL document CHEMBL1201862, “PubChem BioAssay data set” (2004)
Activity calls are given as the source filed them.

What was measured:
[1] = biological target: T1, Kappa-type opioid receptor (Homo sapiens, UniProt P41145); experiment: kappa opioid receptor blockers, cell-based, luminescence, beta-arrestin, SAR follow-up (AID 2285); format: functional
[2] = biological target: T1, Kappa-type opioid receptor; experiment: KOR agonist analogs, imaging readout, SAR follow-up, image-based (AID 2359); format: functional
Mu-type opioid receptor [3] = biological target: T2, Mu-type opioid receptor (Homo sapiens, UniProt P35372); experiment: MOR antagonists, SAR follow-up, image-based (AID 2420); format: functional;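 note: compounds added before stimulation of receptor with agonist DAMGO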
T2 sequence (P35372 whole entry): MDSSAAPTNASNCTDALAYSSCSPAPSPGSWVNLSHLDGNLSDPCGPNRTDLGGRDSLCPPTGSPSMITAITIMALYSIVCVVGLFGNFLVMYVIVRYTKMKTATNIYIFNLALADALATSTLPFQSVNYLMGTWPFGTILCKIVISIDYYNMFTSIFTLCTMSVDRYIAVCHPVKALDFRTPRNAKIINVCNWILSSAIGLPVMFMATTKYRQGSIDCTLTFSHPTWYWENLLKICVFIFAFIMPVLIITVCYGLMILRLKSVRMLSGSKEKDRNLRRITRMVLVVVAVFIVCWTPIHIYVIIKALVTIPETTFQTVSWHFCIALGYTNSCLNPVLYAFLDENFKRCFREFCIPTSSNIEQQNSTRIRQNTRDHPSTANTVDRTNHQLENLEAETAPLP

Mu-type opioid receptor [4] = biological target: T2, Mu-type opioid receptor; experiment: MOR agonists by imaging, SAR follow-up, image-based (AID 2352); format: functional
[5] = biological target: T1, Kappa-type opioid receptor; experiment: KOR antagonists by imaging, SAR follow-up, image-based (AID 2348); format: functional
[6] = biological target: T3, Delta-type opioid receptor (Homo sapiens, UniProt P41143); experiment: DOR agonists, SAR follow-up, image-based (AID 2370); format: functional
T3 sequence (P41143 whole entry): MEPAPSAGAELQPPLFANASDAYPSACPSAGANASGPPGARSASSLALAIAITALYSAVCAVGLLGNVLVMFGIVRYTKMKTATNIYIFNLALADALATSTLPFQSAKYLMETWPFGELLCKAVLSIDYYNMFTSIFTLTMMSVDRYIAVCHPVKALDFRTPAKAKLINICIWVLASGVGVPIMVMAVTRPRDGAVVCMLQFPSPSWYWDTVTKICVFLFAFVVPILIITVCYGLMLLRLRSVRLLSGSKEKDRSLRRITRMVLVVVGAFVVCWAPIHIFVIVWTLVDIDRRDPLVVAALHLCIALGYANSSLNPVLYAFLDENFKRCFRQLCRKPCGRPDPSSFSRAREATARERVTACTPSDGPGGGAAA

[7] = biological target: T3, Delta-type opioid receptor; experiment: DOR antagonists, SAR follow-up, image-based (AID 2357); format: functional
[8] = biological target: G-protein coupled receptor 55 (Homo sapiens, UniProt Q9Y2T6); experiment: GPR55 agonists via beta-arrestin recruitment, primary screen, imaging, U2OS cells, beta-arrestin-GFP redistribution (AID 1961); format: functional
Sequence of G-protein coupled receptor 55 (Q9Y2T6 whole entry): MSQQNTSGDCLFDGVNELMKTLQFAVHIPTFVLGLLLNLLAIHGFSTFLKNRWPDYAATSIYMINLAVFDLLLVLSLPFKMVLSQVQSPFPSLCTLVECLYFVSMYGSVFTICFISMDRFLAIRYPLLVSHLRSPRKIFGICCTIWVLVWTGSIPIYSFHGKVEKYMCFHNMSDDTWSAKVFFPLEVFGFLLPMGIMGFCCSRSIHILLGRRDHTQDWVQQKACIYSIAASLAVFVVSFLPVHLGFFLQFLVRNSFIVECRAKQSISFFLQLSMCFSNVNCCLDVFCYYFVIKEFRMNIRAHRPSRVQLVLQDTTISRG

[9] = biological target: T4, Short transient receptor potential channel 4 (Mus musculus, UniProt Q9QUQ5); experiment: TRPC4 positive allosteric modulators, dose response, cell-based, HEK293 TRPC4/mu-opioid, Fluo-4 calcium, EC20 DAMGO (AID 434941); format: functional
T4 sequence (Q9QUQ5 whole entry): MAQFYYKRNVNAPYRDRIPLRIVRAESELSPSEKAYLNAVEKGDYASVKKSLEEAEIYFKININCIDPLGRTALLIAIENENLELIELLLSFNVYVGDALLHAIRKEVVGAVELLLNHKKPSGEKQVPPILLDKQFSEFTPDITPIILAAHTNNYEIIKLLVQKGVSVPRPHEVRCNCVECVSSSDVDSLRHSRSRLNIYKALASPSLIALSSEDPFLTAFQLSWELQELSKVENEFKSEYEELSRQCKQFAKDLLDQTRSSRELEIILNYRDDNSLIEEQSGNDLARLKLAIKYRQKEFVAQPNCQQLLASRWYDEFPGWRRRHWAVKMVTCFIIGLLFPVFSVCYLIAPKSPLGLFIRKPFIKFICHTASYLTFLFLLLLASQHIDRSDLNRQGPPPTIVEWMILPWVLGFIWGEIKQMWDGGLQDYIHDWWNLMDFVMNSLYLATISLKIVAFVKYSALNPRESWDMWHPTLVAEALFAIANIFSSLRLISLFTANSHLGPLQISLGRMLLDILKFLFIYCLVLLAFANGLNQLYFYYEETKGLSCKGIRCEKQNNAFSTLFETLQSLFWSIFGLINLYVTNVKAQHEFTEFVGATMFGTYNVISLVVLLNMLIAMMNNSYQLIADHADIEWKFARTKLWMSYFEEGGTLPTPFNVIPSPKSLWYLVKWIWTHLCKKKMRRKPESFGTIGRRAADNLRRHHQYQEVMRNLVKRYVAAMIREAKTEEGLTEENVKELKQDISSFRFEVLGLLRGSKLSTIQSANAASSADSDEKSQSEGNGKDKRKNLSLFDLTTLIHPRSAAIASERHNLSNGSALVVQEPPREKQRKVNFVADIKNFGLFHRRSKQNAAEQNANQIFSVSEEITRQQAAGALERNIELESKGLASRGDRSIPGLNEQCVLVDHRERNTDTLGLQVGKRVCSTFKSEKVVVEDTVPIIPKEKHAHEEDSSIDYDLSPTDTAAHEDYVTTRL

[10] = biological target: Voltage-dependent T-type calcium channel subunit alpha-1H (Homo sapiens, UniProt O95180); experiment: Cav3.2 T-type channel inhibitors, cell-based, synthetic library set 1, calcium flux (AID 493022); format: functional
Sequence of Voltage-dependent T-type calcium channel subunit alpha-1H (O95180 whole entry): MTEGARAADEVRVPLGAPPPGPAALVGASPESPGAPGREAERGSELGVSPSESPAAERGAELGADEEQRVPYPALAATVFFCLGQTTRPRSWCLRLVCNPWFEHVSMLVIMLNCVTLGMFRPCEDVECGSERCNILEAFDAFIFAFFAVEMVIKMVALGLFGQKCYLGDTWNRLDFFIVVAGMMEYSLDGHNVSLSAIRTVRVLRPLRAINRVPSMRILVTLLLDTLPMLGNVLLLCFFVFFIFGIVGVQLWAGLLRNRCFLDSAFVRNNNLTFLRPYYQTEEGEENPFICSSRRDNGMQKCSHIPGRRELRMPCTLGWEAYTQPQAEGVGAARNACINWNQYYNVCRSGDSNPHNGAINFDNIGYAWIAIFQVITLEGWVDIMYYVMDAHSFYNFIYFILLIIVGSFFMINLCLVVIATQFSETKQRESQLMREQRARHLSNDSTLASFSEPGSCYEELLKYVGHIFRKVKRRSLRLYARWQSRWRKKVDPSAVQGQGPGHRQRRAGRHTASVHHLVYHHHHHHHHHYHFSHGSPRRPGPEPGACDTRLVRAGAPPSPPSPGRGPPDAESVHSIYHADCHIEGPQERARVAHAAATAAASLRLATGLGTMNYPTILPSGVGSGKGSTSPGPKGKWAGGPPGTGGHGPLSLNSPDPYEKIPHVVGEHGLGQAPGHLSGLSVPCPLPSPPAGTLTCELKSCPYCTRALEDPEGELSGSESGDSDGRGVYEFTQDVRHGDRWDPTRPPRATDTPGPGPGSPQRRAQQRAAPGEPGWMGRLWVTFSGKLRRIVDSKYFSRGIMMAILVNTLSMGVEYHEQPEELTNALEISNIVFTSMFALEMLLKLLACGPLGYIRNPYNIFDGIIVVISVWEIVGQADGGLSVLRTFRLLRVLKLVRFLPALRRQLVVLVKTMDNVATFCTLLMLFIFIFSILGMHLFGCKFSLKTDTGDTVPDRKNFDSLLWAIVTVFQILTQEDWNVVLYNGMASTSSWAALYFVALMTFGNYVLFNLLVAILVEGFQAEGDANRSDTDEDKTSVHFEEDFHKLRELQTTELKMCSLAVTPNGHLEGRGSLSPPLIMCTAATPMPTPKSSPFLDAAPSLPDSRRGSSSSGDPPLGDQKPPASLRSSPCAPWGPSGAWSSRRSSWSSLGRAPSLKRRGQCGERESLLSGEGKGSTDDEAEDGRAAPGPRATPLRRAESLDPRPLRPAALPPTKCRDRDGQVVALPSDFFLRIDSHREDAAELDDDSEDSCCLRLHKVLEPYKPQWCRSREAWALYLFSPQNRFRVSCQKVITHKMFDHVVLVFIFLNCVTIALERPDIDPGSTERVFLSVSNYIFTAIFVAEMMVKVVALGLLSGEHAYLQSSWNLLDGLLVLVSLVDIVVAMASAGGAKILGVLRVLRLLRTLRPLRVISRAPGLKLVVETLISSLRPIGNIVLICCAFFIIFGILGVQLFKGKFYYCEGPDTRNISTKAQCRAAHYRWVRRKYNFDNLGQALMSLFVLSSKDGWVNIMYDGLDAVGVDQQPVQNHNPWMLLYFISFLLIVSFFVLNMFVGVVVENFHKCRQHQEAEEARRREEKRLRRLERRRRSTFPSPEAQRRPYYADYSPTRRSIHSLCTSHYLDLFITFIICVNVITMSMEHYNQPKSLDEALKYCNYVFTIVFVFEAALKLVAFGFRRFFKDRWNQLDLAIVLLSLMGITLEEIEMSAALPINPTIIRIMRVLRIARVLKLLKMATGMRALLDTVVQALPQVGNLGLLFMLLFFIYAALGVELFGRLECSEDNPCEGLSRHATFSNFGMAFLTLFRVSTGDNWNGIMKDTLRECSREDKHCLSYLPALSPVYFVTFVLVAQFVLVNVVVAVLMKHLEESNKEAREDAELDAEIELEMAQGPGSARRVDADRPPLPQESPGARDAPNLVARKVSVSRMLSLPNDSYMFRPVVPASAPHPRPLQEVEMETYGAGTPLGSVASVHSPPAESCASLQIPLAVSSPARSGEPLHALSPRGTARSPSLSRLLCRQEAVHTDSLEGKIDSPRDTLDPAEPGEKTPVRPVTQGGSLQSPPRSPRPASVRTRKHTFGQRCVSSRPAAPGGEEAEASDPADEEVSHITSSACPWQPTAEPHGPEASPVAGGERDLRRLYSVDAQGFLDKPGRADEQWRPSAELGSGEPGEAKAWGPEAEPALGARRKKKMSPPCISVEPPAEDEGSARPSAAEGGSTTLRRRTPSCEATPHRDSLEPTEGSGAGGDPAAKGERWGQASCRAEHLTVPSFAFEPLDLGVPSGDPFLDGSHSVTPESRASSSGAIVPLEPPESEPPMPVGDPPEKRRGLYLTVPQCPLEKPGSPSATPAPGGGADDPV

Hexokinase = Hexokinase (Trypanosoma brucei, UniProt Q38C41); experiment: Confirmation assay for inhibitors of Trypanosoma brucei hexokinase 1-Analogue-first series. [Related pubchem assays (depositor defined):AID1430, AID1632, AID2516, AID2560, AID2579, AID2600, AID449725, AID492951]; format: functional
Sequence of Hexokinase (Q38C41 whole entry): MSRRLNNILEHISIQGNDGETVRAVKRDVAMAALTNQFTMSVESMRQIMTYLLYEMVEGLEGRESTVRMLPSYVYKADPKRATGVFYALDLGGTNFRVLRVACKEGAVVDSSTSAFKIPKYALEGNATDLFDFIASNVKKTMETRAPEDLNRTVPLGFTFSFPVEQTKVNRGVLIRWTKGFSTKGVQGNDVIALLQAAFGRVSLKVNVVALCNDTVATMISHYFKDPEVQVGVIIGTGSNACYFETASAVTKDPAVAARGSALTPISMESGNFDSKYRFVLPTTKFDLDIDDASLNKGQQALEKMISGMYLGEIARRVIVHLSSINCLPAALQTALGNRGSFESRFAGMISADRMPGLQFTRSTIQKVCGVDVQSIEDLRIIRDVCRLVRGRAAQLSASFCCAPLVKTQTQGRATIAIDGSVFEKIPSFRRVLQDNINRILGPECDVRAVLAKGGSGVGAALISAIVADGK

[11] = biological target: Female germline-specific tumor suppressor gld-1 (Caenorhabditis elegans, UniProt Q17339); experiment: inhibitors of GLD-1 binding to TGE RNA, dose response, biochemical, fluorescence polarization, C. elegans (AID 2802);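 note: fluorescence polarization of labeled TGE RNA bound by purified gld-1 protein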
Sequence of Female germline-specific tumor suppressor gld-1 (Q17339 whole entry): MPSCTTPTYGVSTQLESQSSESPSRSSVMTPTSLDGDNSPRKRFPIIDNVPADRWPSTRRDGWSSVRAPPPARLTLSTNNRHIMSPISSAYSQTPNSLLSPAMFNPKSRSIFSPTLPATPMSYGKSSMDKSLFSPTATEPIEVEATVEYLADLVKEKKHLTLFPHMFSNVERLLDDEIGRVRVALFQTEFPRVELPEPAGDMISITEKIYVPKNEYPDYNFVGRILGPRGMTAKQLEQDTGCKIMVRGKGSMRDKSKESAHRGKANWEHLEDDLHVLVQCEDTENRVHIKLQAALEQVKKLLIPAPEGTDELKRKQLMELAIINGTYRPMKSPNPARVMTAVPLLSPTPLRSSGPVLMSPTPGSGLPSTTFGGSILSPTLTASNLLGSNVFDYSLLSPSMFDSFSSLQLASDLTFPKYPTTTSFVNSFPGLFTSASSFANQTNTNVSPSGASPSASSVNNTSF

Protein Rev = Protein Rev (Human immunodeficiency virus type 1 group M subtype B (isolate HXB2)(HIV-1), UniProt P04618); experiment: inhibitors of Rev binding to RRE RNA, dose response, biochemical, fluorescence polarization, HIV-1 (AID 434976); design: species or system Human immunodeficiency virus 1
Sequence of Protein Rev (P04618 whole entry): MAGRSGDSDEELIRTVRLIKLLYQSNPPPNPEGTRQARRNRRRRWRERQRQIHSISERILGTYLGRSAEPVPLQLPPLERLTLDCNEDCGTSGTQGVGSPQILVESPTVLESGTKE

T1 sequence (P41145 whole entry): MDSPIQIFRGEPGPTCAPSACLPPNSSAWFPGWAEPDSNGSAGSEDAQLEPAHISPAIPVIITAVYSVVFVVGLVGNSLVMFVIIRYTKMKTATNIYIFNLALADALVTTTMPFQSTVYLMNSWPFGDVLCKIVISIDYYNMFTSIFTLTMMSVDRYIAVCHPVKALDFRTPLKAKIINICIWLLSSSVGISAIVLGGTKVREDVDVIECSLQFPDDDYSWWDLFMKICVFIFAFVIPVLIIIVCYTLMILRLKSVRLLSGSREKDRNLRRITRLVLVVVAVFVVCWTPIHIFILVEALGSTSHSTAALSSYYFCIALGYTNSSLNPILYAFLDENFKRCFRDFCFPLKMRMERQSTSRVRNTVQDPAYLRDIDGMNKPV

**Q.** Which IC50 [1] does the source give for O=C(Cn1c(=O)c2cccn2c2cccnc21)NCCCN1CCN(c2ccc(F)cc2)CC1 here?
**A.** > 10 µM (inactive)

**Q.** And the EC50 [2]?
**A.** > 32 µM (inactive)

**Q.** What about the IC50 (Mu-type opioid receptor [3]) of the same molecule?
**A.** > 32 µM (inactive)

**Q.** And the EC50 (Mu-type opioid receptor [4])?
**A.** > 32 µM (inactive)

**Q.** And the IC50 [5]?
**A.** 15.2 µM (inactive)

**Q.** What about the EC50 [6] of the same molecule?
**A.** > 32 µM (inactive)

**Q.** And the IC50 [7]?
**A.** > 32 µM (inactive)

**Q.** Cc1c(C(=O)N(C)C2CCCCC2)sc2ncnc(N3CCN(c4ccccc4)CC3)c12 was tested. Which EC50 [8] did it give?
**A.** 5.84 µM (active)

**Q.** Which EC50 [9] does the source give for CCSC1=N/C(=C\c2ccc(OC)cc2)C(=O)N1 here?
**A.** 3.35 µM (active)

**Q.** Which EC50 [10] does the source give for O=C(COc1ccccc1Cl)Nc1nnc(-c2ccc(F)cc2)o1 here?
**A.** 4.6 µM (active)

**Q.** Which IC50 (Hexokinase) does the source give for COc1ccc(C(=O)Nc2cc(C)ccc2C(=O)O)cc1 here?
**A.** > 25 µM (inactive)

**Q.** Cc1ccc(S(=O)(=O)Nc2cc3c(C(=O)Nc4ccccc4)c(C)oc3c3ccccc23)cc1 was tested. Which IC50 [11] did it give?
**A.** 0.725 µM (active)

**Q.** What about the IC50 (Protein Rev) of the same molecule?
**A.** > 75.4 µM (not active)
